From BindingDB's records for doi:10.1021/acs.jmedchem.6b01315 (Constellation Pharmaceuticals, 2016)

These compounds were tested against Histone-lysine N-methyltransferase EZH2 (Homo sapiens, UniProt Q15910) (assay: Inhibition of EZH2 Y641F mutant in PRC2 complex (unknown origin) using RKQLATKAARK(Me3)SAPATGGVKKP-NH2 peptide substrate preincubated for 30 mins followed by addition of [3H]-SAM measured after 2 hrs by Topcount scintillation proximity assay).
Work on `COc1cc(C)[nH]c(=O)c1CNC(=O)c1c(C)n([C@H](C)C2CCN(C(=O)C(C)C)CC2)c2ccccc12` yielded an IC50 of 16 nM. `COc1cc(C)[nH]c(=O)c1CNC(=O)c1c(C)n([C@H](C)C2CCN(CC(F)(F)C(F)F)CC2)c2ccccc12` was tested, and the IC50 was 3.3 nM. Work on `COc1cc(C)[nH]c(=O)c1CNC(=O)c1c(C)n([C@H](C)C2CCN(CCC(F)(F)F)CC2)c2ccccc12` yielded an IC50 of 4.8 nM. Work on `COc1cc(C)[nH]c(=O)c1CNC(=O)c1c(C)n([C@H](C)C2CCN(CC(F)F)CC2)c2ccccc12` yielded an IC50 of 3.8 nM. `COc1cc(C)[nH]c(=O)c1CNC(=O)c1c(C)n([C@H](C)C2CCN(C3COC3)CC2)c2ccccc12` showed an IC50 of 1.7 nM. With `COc1cc(C)[nH]c(=O)c1CNC(=O)c1c(C)n([C@H](C)C2CCN(C(=O)N(C)C)CC2)c2ccccc12` the IC50 was 8.9 nM. Work on `COc1cc(C)[nH]c(=O)c1CNC(=O)c1c(C)n([C@H](C)C2CCN(C)CC2)c2ccccc12` yielded an IC50 of 1.7 nM. `COc1cc(C)[nH]c(=O)c1CNC(=O)c1c(C)n([C@H](C)C2CCN(C(=O)OC(C)C)CC2)c2ccccc12` gave an IC50 of 4.1 nM. `COc1cc(C)[nH]c(=O)c1CNC(=O)c1c(C)n([C@H](C)C2CCNCC2)c2ccccc12` showed an IC50 of 3.9 nM. Work on `CCOC(=O)CN1CCC([C@@H](C)n2c(C)c(C(=O)NCc3c(OC)cc(C)[nH]c3=O)c3ccccc32)CC1` yielded an IC50 of 2.5 nM.
